This note sets out measurements from ChEMBL document CHEMBL1149867, “Salinipyrones and pacificanones, mixed-precursor polyketides from the marine actinomycete Salinispora pacifica” (2008).

SMILES strings stand for the structures.

This assay concerns Splenocyte. Description: Inhibition of IL5 production in mouse splenocyte model of allergic inflammation at 10 ug/ml. It is filed as functional.

Broadly, the inhibition is the change of the read-out against control, counted positive when it falls. Higher therefore signals a response far below the control. In turn, `CC[C@@H](O)[C@@H](C)/C=C(C)/C=C/c1oc(=O)c(C)c(O)c1C` [SALINIPYRONE A] returned an inhibition at 10 µg/mL of 50%.
